For the assay, the target named is Aldo-keto reductase family 1 member B1 (Rattus norvegicus) (UniProt P07943). The assay can be described thus: Inhibition of Rattus norvegicus albino (rat) kidney aldose reductase using DL-glyceraldehyde as substrate assessed as decrease in NADPH concentRattus norvegicus (rat) ion at 10^-4 M after 5 min by spectrophotometrically.
In the case of `Cc1cc(-c2ccccc2)nn1-c1ccc(=O)n(CC(=O)Nc2ccc(Cl)cc2)n1`, the inhibition was determined as 0%.

On to `CCOC(=O)Cn1nc(-n2nc(C)c(Cl)c2C)ccc1=O`, for which the inhibition was found to be 0%. Then `Cc1nn(-c2ccc(=O)n(CC(=O)O)n2)c(C)c1Cl`, with 0.98%; and `Cc1nn(-c2ccc(=O)n(CC(=O)Nc3ccc(Cl)cc3)n2)c(C)c1Cl`, with 0%. For the molecule `Cc1cc(C)n(-c2ccc(=O)n(CC(=O)Nc3ccc(Cl)cc3)n2)n1`, the inhibition was determined as 0%. Then `O=C(CCc1cc(-c2ccc(Cl)cc2)n(-c2ccc(Cl)nn2)n1)NCCc1ccccc1`, with 0%. Then `CCOC(=O)Cn1nc(-n2nc(-c3ccccc3)cc2C)ccc1=O`, with 0%; and `Cc1nn(-c2ccc(=O)n(CC(=O)Nc3ccc(F)cc3)n2)c(C)c1Cl`, with 0%; and `O=C(CCc1cc(-c2ccc(Cl)cc2)n(-c2ccc(Cl)nn2)n1)Nc1ccc(Cl)cc1`, with 0%. With `Cc1cc(C)n(-c2ccc(=O)n(CC(=O)N3CCN(c4ccccc4F)CC3)n2)n1`, the inhibition was found to be 0%. Turning to `Cc1cc(-c2ccccc2)nn1-c1ccc(=O)n(CC(=O)O)n1`, the inhibition is 0.76%. `Cc1nn(-c2ccc(=O)n(CC(=O)NCCc3ccccc3)n2)c(C)c1Cl`: the inhibition is 0%. Then `Cc1nn(-c2ccc(=O)n(CC(=O)N3CCCCC3)n2)c(C)c1Cl`, with 0%; and `CCOC(=O)Cn1nc(-n2nc(C)cc2C)ccc1=O`, with 0%; and `Cc1cc(C)n(-c2ccc(=O)n(CC(=O)N3CCN(c4ccc(F)cc4)CC3)n2)n1`, with 1.85%. As for `Cc1cc(-c2ccccc2)nn1-c1ccc(=O)n(CC(=O)N2CCN(c3ccccc3F)CC2)n1`, the figure is 1.85%; as for `Cc1cc(C)n(-c2ccc(=O)n(CC(=O)NCCc3ccccc3)n2)n1`, 0%; as for `O=C(CCc1cc(-c2ccc(Cl)cc2)n(-c2ccc(Cl)nn2)n1)N1CCCCC1`, 0%.

Regarding `Cc1cc(-c2ccccc2)nn1-c1ccc(=O)n(CC(=O)N2CCN(c3ccc(F)cc3)CC2)n1`, the inhibition came to 0%.

For the molecule `Cc1cc(-c2ccccc2)nn1-c1ccc(=O)n(CC(=O)NCCc2ccccc2)n1`, the inhibition is 0%. With `O=C(O)CCc1cc(-c2ccc(Cl)cc2)n(-c2ccc(Cl)nn2)n1`, the inhibition was determined as 0.76%.

For `Cc1cc(C)n(-c2ccc(=O)n(CC(=O)O)n2)n1`, the inhibition was determined as 7.73%.

Take `Cc1cc(-c2ccccc2)nn1-c1ccc(=O)n(CC(=O)Nc2cccnc2)n1`: the inhibition was 3.37%.

With `Cc1cc(C)n(-c2ccc(=O)n(CC(=O)Nc3cccnc3)n2)n1`, the inhibition was 0%.

The record behind these values is ChEMBL document CHEMBL3044976, “Screening and evaluation of rat kidney aldose reductase inhibitory activity of some pyridazine derivatives” (Med Chem Res, 2006).
